# According to patent US6288037A (BASF Aktiengesellschaft, priority 1996, dated 2001):
# Where a SMILES comes first, the peptide text is derived from it.
# What was measured:
# N-His Ich-1 [1] = target: T1, N-His Ich-1 (Homo sapiens, UniProt P42575); assay: In vitro proteolysis assay with chromogenic para-nitroaniline-labeled peptide substrate (absorbance 405 nm); type: biochemical
# T1 construct: contains Ich-1 amino acid residues 167-435, with an initiator and polyhistidine tag fused to the amino terminus; initiator (Met) + polyhistidine tag (N); made in house
# T1 sequence (P42575 184-333): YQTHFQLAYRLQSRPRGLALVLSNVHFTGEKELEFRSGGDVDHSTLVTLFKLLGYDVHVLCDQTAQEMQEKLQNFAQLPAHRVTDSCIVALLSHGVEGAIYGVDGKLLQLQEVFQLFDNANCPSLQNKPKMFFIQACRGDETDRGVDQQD
# T1 sequence (P42575 334-452): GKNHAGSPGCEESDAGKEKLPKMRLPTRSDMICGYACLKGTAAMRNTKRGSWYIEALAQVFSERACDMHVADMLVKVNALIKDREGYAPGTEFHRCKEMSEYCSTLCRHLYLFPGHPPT
# From the text: To identify peptide substrates for Ich-1, candidate peptides were used in in vitro proteolysis assays with recombinant Ich-1 protein. Human Ich-1 enzyme (the nucleotide and amino acid sequences for which are disclosed in Wang, L., et al. (1994) Cell 78:739-750) was expressed recombinantly with an N-terminal polyhistidine tag by methods described in Kamens, J., et al. (1995) J. Biol. Chem. 270:15250-15256. The resulting enzyme, called N-His Ich-1, contains Ich-1 amino acid residues 167-435, with an initiator and polyhistidine tag fused to the amino terminus. […]
# A peptidic aldehyde inhibitor of Ich-1 was designed based upon the optimal peptide substrate (Peptide 43) described in Example 3. […] The ability of this peptidic aldehyde inhibitor to inhibit N-His Ich-1 activity was determined in in vitro proteolysis assays using a chromogenic para-nitroaniline-labeled peptide substrate. […]
# To perform the proteolysis assay, N-His Ich-1 was preincubated for 30 minutes at 30° C. in 160 μl of a reaction buffer containing 100 mM sodium acetate (pH 6.2), 20% (v/v) glycerol, 5 mM DTT, 0.5 mM EDTA, […]. […] The incubation of N-His Ich-1 with the peptide substrate at 30° C. was continued, and the catalytic hydrolysis of peptide substrate was monitored by the change in absorbance of the samples at 405 nm due to release of pNA as a function of time. […]
# N-His Ich-1 [2] = assay: reaction buffer containing 100 mM sodium acetate (pH 6.2), 20% (v/v) glycerol, 5 mM DTT, 0.5 mM EDTA, at pH 7.5; details: Human, 30° C.
Compound,"IC50 (N-His Ich-1 [1]; 500 μM pNA substrate, inhibitor 0.1 nM to 10 μM, sigmoidal fit)","Ki (N-His Ich-1 [1]; calculated from IC50, [S] and Km, read-out: apparent Ki)",cleaved bond (N-His Ich-1 [2])
"CC(=O)N[C@H](C(=O)N[C@@H](CC(=O)O)C(=O)N[C@H](C(=O)N[C@@H](C)C(=O)N[C@H](C=O)CC(=O)O)C(C)C)C(C)C [Ac-VDVAD-CHO, acetyl-Val-Asp-Val-Ala-Asp-CHO] (Ac-VDVAD-aldehyde)",8 nM,2.5 nM,
acetyl-Val-Asp-Val-Ala-Asp-para-nitroaniline,,,Asp-pNA
